The values below come from PubChem BioAssay (NCI).

Among the test systems are DLD-1 colon; HOP-18 NSCLC; LXFL 529 NSCLC; XF 498 CNS; DMS 273 small cell lung; SNB-78 CNS; M19-MEL melanoma; RXF-631 renal; MDA-N.
Assay in all cases: NCI tumour cell line growth inhibition, 48 h

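Assay format: 96-well plates, 48-hour exposure. Abbreviation: GI50, concentration required for 50% inhibition of growth. At the TGI there is no net growth.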

As for `N#Cc1nc(Nc2ccc(Cl)cc2)sc1N`, the TGI is greater than 100 µM with DLD-1 colon; greater than 100 µM in the experiment on HOP-18 NSCLC; 22.7 µM in the experiment on LXFL 529 NSCLC; greater than 100 µM in the experiment with XF 498 CNS; greater than 63.8 µM in the experiment on DMS 273 small cell lung; greater than 100 µM with SNB-78 CNS. This compound also came in with a TGI in the experiment with M19-MEL melanoma greater than 100 µM.
Consider `Cc1ccc(S(=O)(=O)NC(=O)C#CCOC2CCCCO2)cc1` (stereo not given), for which the TGI in the experiment with DLD-1 colon, in the experiment with HOP-18 NSCLC, in the experiment on LXFL 529 NSCLC, in the experiment on XF 498 CNS, with RXF-631 renal and with DMS 273 small cell lung was greater than 100 µM in each case. Moreover, in the experiment with M19-MEL melanoma, the TGI was greater than 100 µM.
Regarding `O=C(CC(=O)c1cccc([N+](=O)[O-])c1)C(=O)Nc1nc([N+](=O)[O-])cs1`, the TGI in the experiment with DLD-1 colon, with HOP-18 NSCLC, with LXFL 529 NSCLC, with RXF-631 renal, in the experiment on DMS 273 small cell lung and in the experiment with SNB-78 CNS was greater than 100 µM in each case. In the experiment with M19-MEL melanoma, this compound displayed a TGI greater than 100 µM.
For the compound `N#CC(C(=O)C(=O)Nc1ccc(Cl)c(Cl)c1)c1ccc(Cl)cc1` (stereo not given), the TGI in the experiment with DLD-1 colon, in the experiment with HOP-18 NSCLC, in the experiment on LXFL 529 NSCLC, in the experiment on XF 498 CNS, with DMS 273 small cell lung and with SNB-78 CNS was greater than 100 µM in each case.
As for `CC(C)N(C(=O)C12C3C4C5C3C1(C#N)C5C42)C(C)C` (stereo not given), the TGI with DLD-1 colon, in the experiment on HOP-18 NSCLC, with LXFL 529 NSCLC, in the experiment on XF 498 CNS, in the experiment on DMS 273 small cell lung and in the experiment with SNB-78 CNS was greater than 100 µM in each case. Further, the TGI in the experiment on M19-MEL melanoma was greater than 100 µM.
The compound `COc1ccc(OC)c(-c2cc(C(=O)O)c3cc4ccccc4cc3n2)c1` had a TGI in the experiment on MDA-N greater than 100 µM.
As for `COc1ccc2c([nH]c3cc(O)c(C)cc32)c1CC=C(C)C`, the GI50 in the experiment on DLD-1 colon was 9.22 µM; in the experiment on LXFL 529 NSCLC, 8.63 µM; with DMS 273 small cell lung, 8.43 µM; in the experiment on M19-MEL melanoma, 12.2 µM. Moreover, the TGI is greater than 25 µM in the experiment with DLD-1 colon; greater than 25 µM with LXFL 529 NSCLC; greater than 25 µM in the experiment with XF 498 CNS; 16.8 µM in the experiment on DMS 273 small cell lung; greater than 25 µM in the experiment on SNB-78 CNS; greater than 25 µM in the experiment with M19-MEL melanoma.
On to `Cc1cc2c(=O)c3ccccc3oc2c(C#N)c1C`, for which, in the experiment with MDA-N, the TGI is greater than 100 µM.
Turning to `NC(=O)OCC(COc1ccc(Cl)cc1)OC(=O)c1cc([N+](=O)[O-])cc([N+](=O)[O-])c1` (stereo not given), the TGI with DLD-1 colon, in the experiment with HOP-18 NSCLC, in the experiment with LXFL 529 NSCLC, in the experiment with XF 498 CNS, in the experiment with RXF-631 renal and in the experiment with DMS 273 small cell lung was greater than 100 µM each time. This compound returned a TGI with SNB-78 CNS greater than 100 µM.
`COC(=O)C1=C(C)N(NC(=O)c2cccc(Cl)c2)C(C)(O)C12CCOC2=O` (stereo not given): the TGI in the experiment on LXFL 529 NSCLC, in the experiment with XF 498 CNS, in the experiment on RXF-631 renal, in the experiment on DMS 273 small cell lung, in the experiment with SNB-78 CNS and with M19-MEL melanoma was greater than 100 µM throughout.
In the experiment with MDA-N, `NCC(=O)NC(CO)C(=O)O` (stereo not given) showed a TGI greater than 100 µM.
Consider `O=[N+]([O-])c1ccc(NN=C2c3ccccc3Cc3ccccc32)c([N+](=O)[O-])c1`, for which the TGI in the experiment on MDA-N was determined as 7.75 µM.
For `COc1ccc(NC(=O)CC(=O)n2nc(-c3ccccc3)c(N=Nc3ccccc3C)c2-c2ccccc2)cc1`, the TGI in the experiment on DLD-1 colon is 82.5 µM; with HOP-18 NSCLC it was greater than 100 µM; in the experiment with MDA-N it was greater than 100 µM; with LXFL 529 NSCLC it was greater than 100 µM; in the experiment with XF 498 CNS, 33.3 µM; with RXF-631 renal it was greater than 100 µM. Besides, the TGI was 41.2 µM in the experiment with DMS 273 small cell lung and greater than 100 µM in the experiment with M19-MEL melanoma.
Turning to `C/C=C/C=C\C(=O)C1c2cccc(O)c2C(=O)c2c(O)cc(C)cc21` (stereo not given), the TGI with DLD-1 colon was 3.67 µM; in the experiment on HOP-18 NSCLC it was 3.32 µM; with XF 498 CNS it was 0.57 µM; with DMS 273 small cell lung it was 3.06 µM; in the experiment on M19-MEL melanoma it was 2.16 µM.
In the experiment with MDA-N, `O=C(O)C1CCCCC1C(=O)Nc1nc2ccccc2[nH]1` (stereo not given) displayed a TGI greater than 100 µM.
For the compound `[O]=[W](=[O])([OH])[OH]`, in the experiment on MDA-N, the GI50 was greater than 100 µM and the TGI was greater than 100 µM.
In the case of `CNC(=O)OCc1cc2ccncc2c2c1[nH]c1ccccc12`, the TGI with DLD-1 colon is greater than 100 µM; in the experiment with HOP-18 NSCLC it was greater than 100 µM; with LXFL 529 NSCLC, greater than 100 µM; with XF 498 CNS it was 97.9 µM; in the experiment on DMS 273 small cell lung it was greater than 100 µM; in the experiment with SNB-78 CNS it was greater than 100 µM. This compound yielded a TGI in the experiment with M19-MEL melanoma greater than 100 µM.
For the compound `C/C=C(\C)C(=O)OC1C2C(C)C(=O)OC2C(O)C(C)C2C=CC(=O)C21C` (stereo not given), in the experiment with MDA-N, the TGI was determined as 22.8 µM.
Take `C[C@]12CC/C(=N\OC(=O)Nc3ccccc3)C=C1CC[C@@H]1C2CC[C@@]2(C)C1CC[C@@H]2OC(=O)Nc1ccccc1` (stereo not given in full): the TGI in the experiment on HOP-18 NSCLC was greater than 100 µM; in the experiment with LXFL 529 NSCLC, greater than 100 µM; in the experiment on XF 498 CNS, 27.3 µM; in the experiment with DMS 273 small cell lung, greater than 100 µM; in the experiment on SNB-78 CNS it was greater than 100 µM; in the experiment with M19-MEL melanoma it was greater than 100 µM.
In the experiment on MDA-N, `CS(=O)(=O)N(CC(=O)O)Cc1ccccc1` had a TGI greater than 100 µM.
For `O=C(NCc1cccs1)OC1CC2CCC1C2` (stereo not given), the TGI with MDA-N is greater than 100 µM.
As for `CCCC(=O)Nc1ncnc2c1ncn2C1OC2COP(=O)(O)OC2C1OC(=O)CCC` (stereo not given), in the experiment on MDA-N, the GI50 was greater than 1000 µM and the TGI is greater than 1000 µM.
